# Test results from paper PMC6405842, “Identification of a novel scaffold for a small molecule GPR139 receptor agonist” (Scientific Reports, 2019).
# Tests used:
# GPR139 [1] = target: T1, GPR139 (Homo sapiens, UniProt Q6DWJ6); assay: Fluo-4 calcium mobilization assay, agonist mode, concentration-response curves in CHO-GPR139 cells; format: cell-based
# T1 construct: host or cells: CHO-k1
# T1 sequence (Q6DWJ6 1-353): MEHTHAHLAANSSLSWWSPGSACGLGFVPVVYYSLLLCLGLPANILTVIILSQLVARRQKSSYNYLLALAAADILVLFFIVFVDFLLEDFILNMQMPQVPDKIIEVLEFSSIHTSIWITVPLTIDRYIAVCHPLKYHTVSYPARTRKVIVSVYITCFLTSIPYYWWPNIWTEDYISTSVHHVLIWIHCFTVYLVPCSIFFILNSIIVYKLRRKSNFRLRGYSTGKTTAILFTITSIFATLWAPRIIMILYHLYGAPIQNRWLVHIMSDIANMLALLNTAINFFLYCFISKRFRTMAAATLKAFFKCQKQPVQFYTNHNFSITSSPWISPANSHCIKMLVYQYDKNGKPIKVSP
# Method: All compounds were tested on a CHO-k1 cell line stably expressing GPR139 (CHO-GPR139)[11] kindly provided by H. Lundbeck A/S, Denmark. GPR139-specific responses were assessed using a CHO-k1 cell line stably expressing the muscarinic acetylcholine receptor M1 (CHO-M1) (The Missouri S&T cDNA Resource Center, # CEM100TN00). The CHO-GPR139 cells were grown in Dulbecco’s modified Eagle’s medium (DMEM) F12-Kaighn’s (ThermoFisher Scientific # 21127) supplemented with 10% dialyzed fetal bovine serum (United States origin; ThermoFisher Scientific # 26400), 1% GlutaMAX-I (100X) (ThermoFisher Scientific # 35050061), and 100 units/mL penicillin and 100 µg/mL streptomycin (ThermoFisher Scientific # 15140122) and 1 mg/mL geneticin (ThermoFisher Scientific # 11811031). The CHO-M1 cells were grown in Ham’s F12 (ThermoFisher Scientific # 21765) supplemented with 10% fetal bovine serum (South American origin; ThermoFisher Scientific # 10270) + 100 units/mL penicillin and streptomycin and 0.25 mg/mL geneticin.
# The Fluo-4 Ca^2+-assay was performed as described previously, with minor modifications. After 1 hour incubation with the Fluo-4 dye, the CHO-GPR139 cells were washed with 100 μL HEPES buffer (Hank’s Balanced Salt Solution (HBBS, ThermoFisher Scientific # 14175053) supplemented with 20 mM HEPES, 1 mM MgCl2, 1 mM CaCl2, pH = 7.4) and the compound library was then added in concentrations between 25–63 μM dissolved in HEPES buffer (supplemented with 2.5 mM probenecid and 1% DMSO) and pre-incubated for 10 min at 37 °C. 33 μL of 3.2 μM 1a were added automatically after baseline measurements. […] This set-up allowed us to identify both antagonists and agonists (Fig. 2).
# Each compound, for which a concentration response curve was made, was tested at least three times in duplicate measurements. After the incubation with the Fluo-4 dye and a wash, 100 μL HEPES buffer (supplemented with 2.5 mM probenecid) was added to each well and incubated for 10 minutes at 37 °C before recording. 33 μL of compounds (4× concentrated) were added automatically after baseline measurements.
# (§1) The Ca^2+ and ERK responses were normalized as indicated and the concentration response curves were fitted by Prism 6 software (GraphPad) using nonlinear regression in a sigmoidal model with variable slope, as has been previously described.
# GPR139 [2] = target: T1, GPR139; assay: Phospho-ERK1/2 HTRF assay in CHO-GPR139 cells; format: cell-based; conditions: ERK phosphorylation
# Method: All compounds were tested on a CHO-k1 cell line stably expressing GPR139 (CHO-GPR139)[11] kindly provided by H. Lundbeck A/S, Denmark. GPR139-specific responses were assessed using a CHO-k1 cell line stably expressing the muscarinic acetylcholine receptor M1 (CHO-M1) (The Missouri S&T cDNA Resource Center, # CEM100TN00).
# Phospho-ERK measurements were made using the Advanced Phospho-ERK1/2 (Thr202/Tyr204) HTRF kit by Cisbio (Codolet, France). Approximately 24 hours prior to the experiment, CHO-GPR139 cells were plated at 50,000 cells/well onto a 96-well plate and cultured as detailed above. Approximately 6 hours later, the media was aspirated, replaced with 50 μL serum-free media, and the cells were allowed to serum starve overnight. The day of the experiment, serial dilutions of the test compounds and controls were made in serum-free media at 2x final concentration. 50 μL of test compounds were added directly to the appropriate wells for 5 minute stimulation at 37 °C. At this point, the media and compounds were rapidly aspirated, lysis/blocking buffer was added, and cells were lysed on a shaker for 30 minutes at room temperature.
# as §1
# [3] = calcium mobilization assay, GPR139, values printed with a minus sign, read-out: pEC50 ± SEM (converted)
# [4] = calcium mobilization assay, efficacy normalized to compound 1a
# [5] = CHO-GPR139 cells, at least three independent concentration-response curves in duplicate, read-out: EC50
# [6] = CHO-GPR139 cells, normalized to buffer (0%) and 8 μM 1a (100%)
# [7] = CHO-GPR139 cells, 5 minute stimulation, read-out: EC50
# [8] = expressed relative to FBS positive control
# [9] = Table S1, 11 primary screen hits
# [10] = Table S1, 11 primary screen hits, read-out: EC50
# [11] = Table S1, normalized to compound 1a
# [12] = CHO-GPR139 cells, read-out: pEC50 ± SEM (converted)
pEC50 ± S.E.M. (GPR139 [1]; CHO-GPR139 cells),EC50 (GPR139 [1]; [5]) [nM],Emax ± S.E.M. (GPR139 [1]; [6]) [%],Compound,other results
,,,O=C(O)C1CC=CCC1c1nnc(CSc2ccc(Cl)cc2)o1 (stereo not drawn) [AC004],EC50 (GPR139 [1]; [3]): 219 nM; Emax (GPR139 [1]; [4]): 116%
6.01 ± 0.03,990,67 ± 6,Cc1ccc(C(=O)CN2C(=O)NC(C)(c3ccc4c(c3)OCO4)C2=O)cc1 (stereo not drawn) [AC136],
6.74 ± 0.19,180,110 ± 10,CC(C)COCCCNC(=O)NC(C)c1ccc(Cl)cc1Cl (stereo not drawn) [AC183],pEC50 ± SEM (GPR139 [2]; CHO-GPR139 cells): 7.41 ± 0.25; EC50 (GPR139 [2]; [7]): 39 nM; Emax ± SEM (GPR139 [2]; [8]): 64.38 ± 5.28
6.36 ± 0.14,440,100 ± 3,CC1(c2ccc3c(c2)OCCO3)NC(=O)N(CC(=O)c2ccc3c(c2)OCO3)C1=O (stereo not drawn) [AC205],
6.27 ± 0.08,540,92 ± 3,COc1ccc(OC)c(C(=O)CN2C(=O)NC(C)(c3ccc4c(c3)OCO4)C2=O)c1 (stereo not drawn) [AC137],
6.34 ± 0.11,460,111 ± 5,CC1(c2ccc3c(c2)OCCO3)NC(=O)N(CC(=O)c2c[nH]c3ccccc23)C1=O (stereo not drawn) [AC200],
6.55 ± 0.07,280,97 ± 5,CC(NC(=O)NCC(=O)NCC1CC1)c1ccc(F)cc1Cl (stereo not drawn) [AC178],
,,,CC1(C2CC2)NC(=O)N(CC(=O)N2CCCSc3ccccc32)C1=O (stereo not drawn) [AC11],pEC50 ± S.E.M. (GPR139 [1]; [9]): 5.15 ± 0.12; EC50 (GPR139 [1]; [10]): 7070 nM; Emax ± S.E.M. (GPR139 [1]; [11]): 33 ± 3%
,,,Cc1ccc(C2(C)NC(=O)N(Cc3cn4cc(Cl)ccc4n3)C2=O)cc1 (stereo not drawn) [AC10],pEC50 ± S.E.M. (GPR139 [1]; [9]): 5.55 ± 0.03; EC50 (GPR139 [1]; [10]): 2830 nM; Emax ± S.E.M. (GPR139 [1]; [11]): 89 ± 5%
,,,CC(C)OCCCNC(=O)NC(C)c1ccc2c(c1)OCO2 (stereo not drawn) [AC12],pEC50 ± S.E.M. (GPR139 [1]; [9]): 5.43 ± 0.19; EC50 (GPR139 [1]; [10]): 3740 nM; Emax ± S.E.M. (GPR139 [1]; [11]): 116 ± 8%
6.10 ± 0.14,790,100 ± 5,COc1ccc(C(=O)CN2C(=O)NC(C)(c3ccc4c(c3)OCO4)C2=O)cc1OC (stereo not drawn) [AC138],
,,,Cc1ccc(CNC(=O)NCC2CN(CC(C)C)CCO2)cc1 (stereo not drawn) [AC13],pEC50 ± S.E.M. (GPR139 [1]; [9]): 4.68 ± 0.13; EC50 (GPR139 [1]; [10]): 20700 nM; Emax ± S.E.M. (GPR139 [1]; [11]): 90 ± 5%
,,,"COc1cc(OC)cc(C(=O)NNC(=O)Nc2cccc3ccccc23)c1 [1a, reference compound]",EC50 (GPR139 [2]; [12]): 28.2 nM; Emax (GPR139 [2]; [8]): 81.5 ± 4.12%; EC80 concentration (GPR139 [1]; used for second stimulation in the screen): 800 nM
6.45 ± 0.11,350,86 ± 5,CC1(c2cccc3ccccc23)NC(=O)N(CC(=O)NCCc2ccccc2)C1=O (stereo not drawn) [AC243],
6.54 ± 0.17,290,107 ± 3,CC1(c2ccc3c(c2)OCCO3)NC(=O)N(CC(=O)N2CCc3ccccc3C2)C1=O (stereo not drawn) [AC209],
6.13 ± 0.22,740,102 ± 5,CC1(c2cccc3ccccc23)NC(=O)N(CC(=O)N2CCCCCC2)C1=O (stereo not drawn) [AC187],
6.47 ± 0.09,340,102 ± 2,CC1(c2ccc3c(c2)OCO3)NC(=O)N(CC(=O)N2CCCc3ccccc32)C1=O (stereo not drawn) [AC202],
6.20 ± 0.24,630,115 ± 8,CCc1cccc2c(C(=O)CN3C(=O)NC(C)(c4ccc5c(c4)OCCO5)C3=O)c[nH]c12 (stereo not drawn) [AC210],
6.39 ± 0.12,410,89 ± 5,CC1CC(C)CN(C(=O)CN2C(=O)NC(C)(c3cccc4ccccc34)C2=O)C1 (stereo not drawn) [AC186],

pEC50 ± S.E.M. (GPR139 [1]; CHO-GPR139 cells),EC50 (GPR139 [1]; [5]) [nM],Emax ± S.E.M. (GPR139 [1]; [6]) [%],Compound,other results
6.42 ± 0.07,380,99 ± 3,CC1(c2cccc3ccccc23)NC(=O)N(CC(=O)c2ccc3c(c2)OCO3)C1=O (stereo not drawn) [AC234],
,490,,CC(C)(C)c1cc(NC(=O)Nc2ccc(-c3cn4c(n3)sc3cc(OCCN5CCOCC5)ccc34)cc2)no1 [AC220],Emax (GPR139 [1]; [6]): 103 ± 3%
6.54 ± 0.08,290,102 ± 6,CC(C)COCCCNC(=O)NC(C)c1ccc(Br)cc1 (stereo not drawn) [AC82],
6.41 ± 0.12,390,112 ± 5,C=CCN(CC=C)C(=O)CN1C(=O)NC(C)(c2ccc3c(c2)OCO3)C1=O (stereo not drawn) [AC7],
,,,"N[C@@H](Cc1c[nH]c2ccccc12)C(=O)O [L-tryptophan, reference compound]",EC50 (GPR139 [2]; [7]): 770000 nM; EC50 (GPR139 [2]; [12]): 759000 nM; Emax (GPR139 [2]; [8]): 70.6 ± 8.59%
6.03 ± 0.10,940,97 ± 4,CC(C)OCCCNC(=O)NC(C)c1cccc(Cl)c1 (stereo not drawn) [AC76],
6.12 ± 0.13,750,95 ± 1,CC1(c2ccc3c(c2)OCO3)NC(=O)N(CC(=O)N2CCCCC2)C1=O (stereo not drawn) [AC192],
6.22 ± 0.17,600,102 ± 4,CC(C)OCCCNC(=O)NC(C)c1ccccc1Cl (stereo not drawn) [AC77],
6.38 ± 0.06,420,88 ± 3,CC1(c2cccc3ccccc23)NC(=O)N(CC(=O)c2ccc(CCNS(C)(=O)=O)s2)C1=O (stereo not drawn) [AC241],
,,,CC(=O)Oc1cccc2c1C(=O)c1c(OC(C)=O)cc(C(=O)O)cc1C2=O [AC201],"EC50 (GPR139 [1]; calcium mobilization assay, GPR139, read-out: EC50): 1800 nM; EC50 (GPR139 [1]; [3]): 1780 nM; Emax (GPR139 [1]; [4]): 96%"
6.46 ± 0.16,350,99 ± 2,CC1(c2ccc3c(c2)OCCO3)NC(=O)N(CC(=O)c2ccc[nH]2)C1=O (stereo not drawn) [AC191],
6.47 ± 0.19,340,80 ± 6,CC1(c2cccc3ccccc23)NC(=O)N(CC(=O)c2cc3ccccc3o2)C1=O (stereo not drawn) [AC233],
,,,O=C(NCCc1cc(Cl)c2c(c1)OCCO2)NCc1cccnc1-n1ccnc1 [AC37],pEC50 ± S.E.M. (GPR139 [1]; [9]): 5.55 ± 0.19; EC50 (GPR139 [1]; [10]): 2800 nM; Emax ± S.E.M. (GPR139 [1]; [11]): 105 ± 8%
,,,"C[C@H](NC(=O)CNC(=O)c1cccc(Cl)c1)c1ccccc1 [7c, reference compound]",EC50 (GPR139 [2]; [12]): 12.9 nM; Emax (GPR139 [2]; [8]): 89.1 ± 4.38%
6.31 ± 0.27,490,89 ± 1,C=C(C)CN(CC)C(=O)CN1C(=O)NC(C)(c2cccc3ccccc23)C1=O (stereo not drawn) [AC230],
6.36 ± 0.16,430,95 ± 2,C=CCN(CC=C)C(=O)CN1C(=O)NC(C)(c2cccc3ccccc23)C1=O (stereo not drawn) [AC229],
6.11 ± 0.12,780,93 ± 3,O=C(NCCCc1nc2ccccc2[nH]1)NC1CCSc2ccc(F)cc21 (stereo not drawn) [AC14],
,,,CN(CC(=O)NC1CC1)C(=O)COc1ccc2oc3c(c2c1)CCCC3 [AC16],pEC50 ± S.E.M. (GPR139 [1]; [9]): 4.92 ± 0.12; EC50 (GPR139 [1]; [10]): 11900 nM; Emax ± S.E.M. (GPR139 [1]; [11]): 44 ± 4%
